From PubChem BioAssay (NCI)
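Values below derive from 48-hour exposures of cells grown in 96-well plates, with endpoints linearly interpolated between the two concentrations bracketing the appropriate inhibition level. Abbreviation: GI50, concentration required for 50% inhibition of growth. TGI denotes the concentration required for complete inhibition of growth.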

Experiments:
Experiment in all cases: NCI anticancer screen, dose series, 48 h
HS 578T breast = system: HS 578T breast
BT-549 breast = system: BT-549 breast
RPMI-8226 leukemia = system: RPMI-8226 leukemia
SF-268 CNS = system: SF-268 CNS
HL-60(TB) leukemia = system: HL-60(TB) leukemia
M14 melanoma = system: M14 melanoma
PC-3 prostate = system: PC-3 prostate
UACC-62 melanoma = system: UACC-62 melanoma
HCT-15 colon = system: HCT-15 colon
SNB-75 CNS = system: SNB-75 CNS

| Structure (SMILES) | GI50 (HS 578T breast) [µM] | TGI (HS 578T breast) [µM] | GI50 (BT-549 breast) [µM] | TGI (BT-549 breast) [µM] | GI50 (RPMI-8226 leukemia) [µM] | TGI (RPMI-8226 leukemia) [µM] | GI50 (SF-268 CNS) [µM] | TGI (SF-268 CNS) [µM] | GI50 (HL-60(TB) leukemia) [µM] | TGI (HL-60(TB) leukemia) [µM] | GI50 (M14 melanoma) [µM] | TGI (M14 melanoma) [µM] | GI50 (PC-3 prostate) [µM] | TGI (PC-3 prostate) [µM] | GI50 (UACC-62 melanoma) [µM] | TGI (UACC-62 melanoma) [µM] | GI50 (HCT-15 colon) [µM] | TGI (HCT-15 colon) [µM] | TGI (SNB-75 CNS) [µM] | GI50 (SNB-75 CNS) [µM] |
| --- | --- | --- | --- | --- | --- | --- | --- | --- | --- | --- | --- | --- | --- | --- | --- | --- | --- | --- | --- | --- |
| COc1ccc(C(=O)/C=C/c2ccc(Cl)cc2)cc1S(N)(=O)=O | 3.28 | 18.4 | 2.29 | 7.33 | 2.61 | 6.53 | 3.13 | 11.9 | 3.08 | 8.77 | 2.13 | 5.68 | 2.24 | 5.24 | 4.88 | 17.5 | 2.14 | 10.6 | – | – |
| Clc1ccc(Cl)c(N/N=C\c2c[nH]c3ccccc23)c1 | 3.89 | 23.1 | 0.196 | 16.9 | 6.16 | 26.1 | > 100 | > 100 | – | – | 12.8 | 25.4 | 0.915 | 9.48 | 9.92 | 22.6 | 8.81 | > 100 | – | – |
| CC(C)c1ccc2c(c1)CCC1C(C)(C)[C@@H](O)CC[C@]21C (stereo partly specified) | – | – | – | – | – | 52 | – | > 100 | – | 37.6 | – | 72.4 | – | – | – | > 100 | – | > 100 | 55.4 | – |
| CN(C)C1(C#N)CCC2(CC1)OCCO2 | – | – | – | – | – | > 100 | – | > 100 | – | > 100 | – | > 100 | – | – | – | > 100 | – | > 100 | > 100 | – |
| c1ccc([CH2][Sn]([CH2]c2ccccc2)([S]c2cccc3cccnc23)[S]c2cccc3cccnc23)cc1 | – | – | – | – | – | – | 0.489 | 2.3 | 0.273 | 0.687 | 0.221 | 0.511 | – | – | 0.211 | 0.496 | 0.2 | 0.476 | 2.02 | 0.749 |
| COC(=O)C(=O)C(C#N)c1cccc2ccccc12 (stereo unspecified) | – | – | – | – | – | > 100 | – | > 100 | – | > 100 | – | > 100 | – | – | – | > 100 | – | > 100 | > 100 | – |
| COc1ccc(CN2CCc3c(Cl)nc(N)nc3C2=O)c(OC)c1 | 19.2 | 50.5 | 16.8 | 42.2 | 16 | 52.7 | 13.6 | 27.3 | 1.67 | 5.52 | 13.8 | 28.1 | – | – | 13.5 | 27.6 | 10.4 | 24.3 | 32.7 | 14.4 |
| O=c1c(Cl)nsnc1Cl | – | 78.9 | – | – | – | 5.22 | – | 71.3 | – | – | – | 12.8 | – | 39.1 | – | 33.4 | – | 51.1 | > 53.1 | – |
| CCc1ccc(Cc2ccc(CC)c(NC(=O)C(=O)Cc3nc4ccccc4nc3C)c2CC)c(CC)c1NC(=O)C(=O)Cc1nc2ccccc2nc1C | – | – | – | – | – | > 100 | – | > 100 | – | > 100 | – | > 100 | – | – | – | > 100 | – | > 100 | 44.4 | – |
| N#Cc1c([N+](=O)[O-])cc(C(F)(F)F)cc1[N+](=O)[O-] | – | – | – | – | – | 6.28 | – | 27.3 | – | – | – | 17.1 | – | – | – | 12.2 | – | 24.9 | 20.1 | – |
| O=c1[nH]nc(-c2ccccc2)c(-c2ccccc2)c1-n1nc(-c2ccccc2)c2ccccc2c1=O | – | – | – | – | – | > 100 | – | > 100 | – | – | – | > 100 | – | – | – | > 100 | – | > 100 | > 100 | – |
| Nc1nc2nc3c(nc2c(=O)[nH]1)CN(c1ccc(C(=O)O)cc1)C3=O | – | > 100 | – | > 100 | – | > 100 | – | > 100 | – | – | – | > 100 | – | > 100 | – | > 100 | – | > 100 | > 100 | – |
| O=C(c1ccccc1)c1nnn(Cc2cccc(Cl)c2)c1C(=O)c1ccccc1 | – | – | – | – | – | > 100 | – | > 100 | – | > 100 | – | > 100 | – | – | – | > 100 | – | > 100 | > 100 | – |
| Cc1ccc(S(=O)(=O)NCCCN(CCCNS(=O)(=O)c2ccc(C)cc2)S(=O)(=O)c2ccc(C)cc2)cc1 | – | – | – | – | – | > 100 | – | > 100 | – | > 100 | – | > 100 | – | – | – | > 100 | – | > 100 | > 100 | – |
| C=CCCc1cc(OC)ccc1CN(C)C(C)(C)CO | – | – | – | – | – | > 100 | – | > 100 | – | – | – | – | – | – | – | > 100 | – | > 100 | > 100 | – |
| CC(=O)NNc1nc(C)c(C(/C=C/c2ccc(/C=C/C(=N\NC(=O)c3ccncc3)c3sc(NNC(C)=O)nc3C)cc2)=N/NC(=O)c2ccncc2)s1 | – | – | – | – | – | > 100 | – | > 100 | – | > 100 | – | > 100 | – | – | – | > 100 | – | > 100 | > 100 | – |
| [N-]=[N+]=Nc1ccc(S(=O)(=O)Oc2cc(OS(=O)(=O)c3ccc(N=[N+]=[N-])cc3)cc(OS(=O)(=O)c3ccc(N=[N+]=[N-])cc3)c2)cc1 | – | – | – | – | – | > 100 | – | > 100 | – | – | – | > 100 | – | – | – | > 100 | – | > 100 | > 10 | – |
| COC(=O)C1=C(O)C(O)=C(C(=O)OC)CC1 | – | – | – | – | – | > 100 | – | > 100 | – | > 100 | – | > 100 | – | – | – | > 100 | – | > 100 | > 100 | – |
| COc1ccc(CN(O)C2C(CO)OC(n3cc(I)c(=O)[nH]c3=O)C2O)cc1 (stereo unspecified) | – | – | – | – | – | > 100 | – | > 100 | – | > 100 | – | > 100 | – | – | – | > 100 | – | > 100 | > 100 | – |
| C=C1C(=O)OC2C1C(OC(=O)/C(=C/C)COC(C)=O)CC1(CO1)C1C(OC(=O)/C(=C/C)CO)C=C(C)C21 (stereo unspecified) | – | – | – | – | – | 6.56 | – | 9.35 | – | 2.34 | – | 3.86 | – | – | – | 3.01 | – | 4.91 | 15.6 | – |
| CCS[C@H]1NC(=O)C1[C@H](C)O[Si](C)(C)C(C)(C)C (stereo partly specified) | – | – | – | – | – | > 100 | – | > 100 | – | – | – | – | – | – | – | > 100 | – | > 100 | > 100 | – |
| O=C(CC(O)(c1ccccc1)c1ccc(Cl)cc1)NC(=O)c1ccccc1O (stereo unspecified) | – | – | – | – | – | – | – | > 100 | – | 25 | – | 27.9 | – | – | – | 21.3 | – | 37.5 | 40.8 | – |
| Cc1c(C(=O)/C=C/c2ccco2)[n+](=O)c2ccccc2n1[O-] | – | – | – | – | – | > 100 | – | > 100 | – | > 100 | – | > 100 | – | – | – | > 100 | – | – | > 100 | – |
